This is an account of results in patent publication US20130210907A1, “METHOD FOR PREVENTING OR TREATING ENTEROCHROMAFFIN CELL HYPERPLASIA-RELATED DISEASES BY QUERCETIN ADMINISTRATION” (HONG KONG BAPTIST UNIVERSITY, priority 2012, published 2013).

What all share (format): in vivo, rat
Assay [1] has as its system PI-IBS rats. The experiment in a line: Abdominal withdrawal reflex (AWR) test: pain threshold pressure to colorectal distension. The procedure: Sprague-Dawley male rats (Laboratory Animal Services Centre, The Chinese University of Hong Kong) aged 6 weeks with body weight around 220 g are used to develop PI-IBS model. Briefly, rats are fasted for 24 h, and deeply anesthetized with chloral hydrate (350 mg.kg^−1, i.p.). After induction of colitis by 2,4,6-trinitrobenzenesulfonic acid solution (TNBS, 5 mg/0.8 ml/rat, in 50% ethanol, 8 cm from anus) administration, the rats are allowed to recover for at least 4 weeks before use. The control rats are similarly administered with 0.8 ml saline instead of TNBS. Only the rats that have completely recovered from the initial inflammation and acquired visceral hypersensitivity are used as the PI-IBS rats.
6 groups of 12 rats are tested. Normal rats (Group 1) are treated with water. PI-IBS rats are randomly divided into 5 groups and orally treated with water (Group 2), Doxantrazole (mast cell stabilizer, 30 mg/kg/d, Group 3), and Quercetin (Group 4-6) at the dose of 5, 10, and 20 mg/kg/d, respectively. After 2 weeks daily drug administration, 5 rats in each group are used to measure pain threshold pressure by abdominal withdrawal reflex (AWR) test, and the remaining […] is used for electromyography (EMG) recording.
AWR test is performed as previously described in Al-Chaer E D, Kawasaki M, Pasricha P J. A new model of chronic visceral hypersensitivity in adult rats induced by colon irritation during postnatal development. Gastroenterology. 2000 November; 119(5):1276-85. Briefly, rats are lightly anesthetized with ether; a latex balloon is inserted into the descending colon. Rats are then allowed to recover for about 1 h. The tube of the balloon is connected via a Y-connector to a sphygmomanometer and colorectal distension is applied in increments of 5 mmHg until a visible contraction of the abdominal wall is observed by an investigator blinded to the treatment. The pain threshold pressure is defined as the intensity of colorectal distension (CRD) that elicited an observable AWR, i.e. a sudden and persistent abdominal muscle contraction with abdomen lift off the platform. The pain threshold pressure of all groups is recorded and repeated five times with intervals of at least 5 minutes for recovery. EMG recording are conducted as previously described in Tammpere A, Brusberg M, Axenborg J, Hirsch I, Larsson H, Lindstrom E. Evaluation of pseudo-affective responses to noxious colorectal distension in rats by manometric recordings. Pain. 2005 August; 116(3):220-6 and Li Z, Zhang X J, Xu H X, Sung J J, Bian Z X. Intracolonical administration of protease-activated receptor-2 agonists produced visceral hyperalgesia by up-regulating serotonin in the colon of rats. Eur J. Pharmacol. 2009 Mar. 15; 606(1-3):199-204. Firstly, a surgical operation is made to implant the electrodes into the left external abdominal oblique muscles 7 days before EMG recording. After the last drug administration, a flexible latex balloon is inserted into the rat descending colon, and the rats are allowed to accommodate for 1 h. CRD is initiated, and the EMG signal is amplified and filtered by Power Lab System. Graded colorectal distension (20, 40, 60, and 80 mmHg; 20 s duration; 2 min inter-stimulus interval) is carried out for total three cycles to each rat. The changes of area under the curve (AUC) are calculated using that during 20 s distension period over the 20 s baseline.

Assay [2] concerns PI-IBS rats. The experiment in a line: Colonic EC cell counting (silver staining). To be noted: 30 mg/kg i.g. The procedure:
(§1) Six groups of 5 rats are tested. The groups setting and treatments are as described in Example 1. Different from Example 1, AWR test are not applied to the rats in this experiment in order to obtain the basal data without CRD stimulus. After the last drug administration, a 6 cm proximal colon (1-2 cm from caecum) is collected and divided into 3 parts, the proximal is fixed in 4% paraformaldehyde and embedded in paraffin for EC cell staining; the middle part is collected for 5-HT content measurement and electron microscopic evaluation, and the distal part is for western blotting analysis.
Tissue sections (5-μm thick) are deparaffinized and rehydrated for silver staining. Briefly, sections are incubated with 5% ammoniacal silver solution for 4 h at room temperature, then 2 h in 56° C. and subsequently 12 h at room temperature in a dark humidified chamber. After rinsing with water, 5% sodium hyposulfite is added and the tissue sections are incubated for 5 min at room temperature. The brown to black silver precipitate in the cytoplasm of EC cells represents as a positive reaction. A researcher blinded to treatment counted 5 random fields at 200× magnifications for each section, and the number of EC cells per mm^2 of mucosa is quantified using Image J NIH software.

The subject of assay [3] is PI-IBS rats. The experiment in a line: Colonic tissue 5-HT content (capillary electrophoresis, laser-induced fluorescence). To be noted: 30 mg/kg i.g. As to the method:
as §1
(§2) 5-HT content in the colon tissue is assayed based on our previously reported procedure in Qi S D, Tian S L, Xu H X, Sung J J, Bian Z X. Quantification of luminally released serotonin in rat proximal colon by capillary electrophoresis with laser-induced fluorescence detection. Anal Bioanal Chem. 2009 April; 393(8):2059-66. Briefly, the colon segment is homogenized in 15% iced trichloroacetic acid; for 2 min and stored at 4° C. for 2 h. After centrifuge at 10,000 G for 15 min, the supernatant of each sample is filtered using 0.22 μm filters and extracted with diethyl ether for five times to remove the trichloroacetic acid. The prepared samples are added to derivatization solution (150 mM sodium tetraborate, 25% acetonitrile, 2 mM CFSE) and incubated for […] in dark at room temperature. The 5-HT content is analyzed by capillary electrophoresis with laser-induced fluorescence detection and expressed as nanogram per milligram (wet weight of tissue).

Assay [4] has as its system PI-IBS rats. The assay can be described thus: Mechanical stimuli (CRD)-induced 5-HT release: colonic 5-HT content with or without CRD. As to the method: as §2
To determine whether mechanical stimuli (CRD) can induce colonic 5-HT release in PI-IBS rats, and whether Quercetin has effect on it, 5-HT content in colonic tissue is evaluated in rats with or without AWR test. The colon tissues for 5-HT content determination are collected from the rats from Example 1 and Example 2, and the methods for 5-HT content determination are followed as described in Example 2.

As to `O=C1c2ccccc2S(=O)(=O)c2cc(-c3nnn[nH]3)ccc21` [Doxantrazole, reference compound], in assay [1] (30 mg/kg i.g. daily, 2 weeks), the “Pain threshold pressure, after treatment” value is given as 29 ± 1.2 mmHg. Also, the “Pain threshold pressure, before treatment” value in assay [1] (30 mg/kg i.g. group, before treatment) worked out at 25 ± 1.3 mmHg. For the same compound, the “Effect on colonic EC cells number in PI-IBS rats” value in assay [2] was “no marked effects”. This compound also had an EC cell density in assay [2] (PI-IBS rats, colon) of 95 ± 10 Number/mm^2. In assay [3], the “Effect on colonic 5-HT content in PI-IBS rats” value is on record as “no marked effects”. The 5-HT content in assay [3] (PI-IBS rats, colon) is 5.75 ± 0.44^ ng/mg. The “5-HT content of tissue, +CRD” value in assay [4] (30 mg/kg i.g., after CRD) was 2.62 ± 0.30 ng/mg. For the same compound, the “5-HT content of tissue, -CRD” value in assay [4] (30 mg/kg i.g., without CRD) is listed as 5.75 ± 0.44^ ng/mg. Besides, the “Decrease of colon tissue 5-HT content after CRD application” value in assay [4] (30 mg/kg, p<0.05) was about 54.4%.
